System: paw edema induced by phospholipase A2 from Naja naja venom
Assay: Phospholipase A2 rat paw edema
Format: in vivo, Lewis rats
Conditions: 30 mg/kg ip, 1 hr prior to PLA2, 2 hr, read-out: % Inhib of PLA2 Paw Edema 2 hr 30 mg/kg ip

Structure (SMILES) | inhibition in vivo at 30 mg/kg [%]
CCCCCCCCCCCCCCCCCCOc1cccc(C(=O)N(CC(=O)O)CC(=O)O)c1 [Example 4, N-(Carboxymethyl)-N-[3-(octadecyloxy)benzoyl]glycine] | 35
CCCCCCCCCCOc1cc(OCCCCCCCCCC)cc(C(=O)N(CC(=O)O)CC(=O)O)c1 [Example 11, N-(Carboxymethyl)-N-[3,5-bis(decyloxy)benzoyl]glycine] | 0
CCCCCCCCCCCCCCCCCCOc1cc(OCCCOc2cccc([N+](=O)[O-])c2)cc(C(=O)N(CC(=O)O)CC(=O)O)c1 [Example 22, N-(Carboxymethyl)-N-[3-[3-(3-nitrophenoxy)propoxy]-5-(octadecyloxy)benzoyl]glycine] | 64
CCCCCCCCCCCCCCCCCCOc1cc(OCCCOc2cccc(N)c2)cc(C(=O)N(CC(=O)O)CC(=O)O)c1 [Example 23, N-(Carboxymethyl)-N-[3-[3-(3-aminophenoxy)propoxy]-5-(octadecyloxy)benzoyl]glycine] | 40
CCCCCCCCCCCCCCCCCCOc1cc(OCCOCCOCCOCC)cc(C(=O)N(CC(=O)O)CC(=O)O)c1 [Example 48, N-(carboxymethyl)-N-[3-[2-[2-(2-ethoxyethoxy)ethoxy]ethoxy]-(5-octadecyloxy)benzoyl]glycine] | 43
CCCCCCCCCCCCCC(=O)Nc1cc(NC(=O)CCCCCCCCCCCCC)cc(C(=O)N(CC(=O)O)CC(=O)O)c1 [Example 56, N-(Carboxymethyl)-N-[3,5-bis(1-oxotetradecylamino)benzoyl]glycine] | 57
CCCCCCCCCCCCCCCCCCOc1ccc(O)c(C(=O)N(CC(=O)O)CC(=O)O)c1 [Example 62, N-(carboxymethyl)-N-[2-hydroxy-5-(octadecyloxy)benzoyl]glycine] | 60
CCCCCCCCCCCCCCCCCCOc1ccc(C(=O)C(=O)N(CC(=O)O)CC(=O)O)cc1 [Example 65, N-(Carboxymethyl)-N-[2-[4-(octadecyloxy)phenyl]-1,2-dioxoethyl]glycine] | 71
CCCCCCCCCCOc1cc(OCCCCCCCCCC)cc(C(=O)C(=O)N(CC(=O)O)CC(=O)O)c1 [Example 73, N-(Carboxymethyl)-N-[[3,5-bis(decyloxy)phenyl]-1,2-dioxoethyl]glycine] | 32

From patent US5298652A, “N-substituted glycines, inhibitors of phospholipase A2” (Hoffmann-La Roche Inc., priority 1992, dated 1994)
